Results taken from PMC8584229, “Comparative Antiseizure Analysis of Diverse Natural Coumarin Derivatives in Zebrafish” (International Journal of Molecular Sciences, 2021).
Where two headings read alike, the source gives them in different places.

Key:
[1] = system: PTZ-induced seizure-like behavior (locomotor activity) of zebrafish larvae; assay: Larval zebrafish PTZ seizure model, locomotor analysis (behavioral antiseizure activity); assay type: in vivo, zebrafish (Danio rerio); conditions: for antiseizure activity in the locomotor assay (in words) / lowered seizure-like behavior / decrease of PTZ-induced locomotor activity / decrease of seizure-like behavior / lowered PTZ-induced locomotion: 20 mM PTZ; for antiseizure activity in the locomotor assay (in words): up to MTC; for lowered seizure-like behavior: abstract summary, highest effect, 18 h pre-incubation; for decrease of PTZ-induced locomotor activity: range over all test concentrations (MTC and 2-, 4-, 8-fold dilutions)
Procedure: The effect of different concentrations of test compounds was explored on the locomotor behavior of larvae exposed to the GABA-antagonist PTZ. All compounds were tested at four concentrations—the maximum tolerated concentration (MTC) and two-fold, four-fold, and eight-fold dilutions of the MTC. […] In all experiments, as expected, the positive control VPA (1 mM) decreased seizure-like behavior (i.e., PTZ-induced elevated locomotor activity) with an average (±SD) of 44 ± 34%. […] The antiseizure effect depended on either the type of coumarin or the concentration.
Adult zebrafish (Danio rerio) stocks of the AB strain were maintained at 28.5 °C, on a 14/10 h light/dark cycle under standard aquaculture conditions, and fertilized eggs were collected via natural spawning. Embryos were reared under standard light/dark conditions in embryo medium (1.5 mM HEPES, pH 7.1–7.3, 17.4 mM NaCl, 0.21 mM KCl, 0.12 mM MgSO4, 0.18 mM Ca(NO3)2, and 0.6 μM methylene blue) in an incubator at 28.5 °C. For all measurements, 7-days post-fertilization (dpf) larvae were used, which were treated at 6 dpf. The zebrafish experiments described here were approved by the Local Ethics Committee in Lublin (license no: 109/2018), the Ethics Committee of the University of Leuven (approval number 023/2017), and the Belgian Federal Department of Public Health, Food Safety & Environment (approval number LA1210199). All experiments complied with the EU Directive 2010/63/EU for animal experiments.
All compounds were dissolved in dimethyl sulfoxide (DMSO) and diluted in embryo medium to achieve a final DMSO concentration of 1% v/v. Embryo medium prepared with DMSO to a final concentration of 1% v/v served as a vehicle (VHC) control. PTZ (40 mM) was dissolved in embryo medium. The control anticonvulsant used in this study was VPA.
Six-dpf larvae were treated with VHC (embryo medium (1% DMSO)), VPA (1 mM), or tested compound, in 100 µL volume for 18 h, in individual wells of a 96-well plate at 28.5 °C in the dark. Larvae were allowed to habituate for 5 min in a dark chamber of an automated tracking device (ZebraBox system, Viewpoint, Lyon, France). Then, 100 µL of embryo medium or 100 µL of a 40 mM PTZ solution was added to obtain a final concentration of 20 mM [33] and the locomotor activity was measured to evaluate seizure intensity. The total locomotor activity was quantified using ZebraLab software (Viewpoint, Lyon, France). Total locomotor activity was expressed as total distance moved. All tracking experiments were performed at least in triplicate.
(§1) All statistical analyses were performed using GraphPad Prism 5 or 7 software (GraphPad Software, Inc., San Diego, CA, USA). The locomotor activity of zebrafish larvae and electrophysiological antiseizure analysis was evaluated using one-way ANOVA followed by Dunnett’s multiple comparisons test. Values were presented as lardist sum ± standard error of the mean (SEM) or normalized PSD (%) ± standard error of the mean (SEM). Lardist is large movement distance (>6 mm/s), measured in millimeters. Significance levels: * p ≤ 0.05, ** p ≤ 0.01, and *** p ≤ 0.001.

[2] = system: maximal electroshock-induced seizures; conditions: cited from earlier work; for ED50 of classic anticonvulsant alone: without umbelliferone
[3] = system: seizure-related locomotor activity of zebrafish; design: method as in PMID 30668376; conditions: cited from earlier work
[4] = system: PTZ-induced epileptiform activity in the zebrafish larval optic tectum; assay: Local field potential recordings from the optic tectum, power spectral density analysis; assay type: in vivo, zebrafish (Danio rerio); conditions: MTC, 18 h incubation; 20 mM PTZ; 20–90 Hz band
Procedure: To further investigate the results of the behavioral study for all eight selected compounds, local field potential (LFP) measurements were employed. Zebrafish larvae were incubated with the compounds at their MTC for 18 h in darkness and the epileptiform activity was measured in the zebrafish larval optic tectum. A significant reduction in larvae with PTZ-induced epileptiform activity was observed, in comparison to PTZ-treated controls, for all compounds except nodakenetin (Figure 3).
For the rapid, objective, and automated analysis of the LFP recordings, power spectral density (PSD) analysis was performed. This methodology was previously developed and used for zebrafish electrophysiology. It relies on the Welch’s method of averaging the modified periodograms with a 512-point fast Fourier transformation with 80% overlapping 100 sample (100 ms) long segments and a Hamming window. PSDs were estimated for each LFP recording over each 10 Hz frequency band, ranging from 0 to 160 Hz. All examined furanocoumarins at the MTC concentration ameliorated the excitatory effect of preincubation with PTZ. Oxypeucedanin (1), oxypeucedanin hydrate (2), and notopterol (3) decreased normalized PSD per larva to a similar level with 83–89%. […] Pimpinellin (14, an angular furanocoumarin), daphnoretin (17, a simple coumarin derivative), and hyuganin C (18, a dihydropyranocoumarin) decreased normalized PSD by 81, 88, and 65%, respectively.
Non-invasive local field potential recordings were performed from the optic tectum of 7-dpf zebrafish larvae. Larvae were treated with VHC (embryo medium (1% DMSO)) or compound (MTC) in 100 µL volume (in individual wells of a 96-well plate) in darkness (28 °C) for 18 h before measurement. Prior to the recording, 100 µL of VHC (embryo medium) or 40 mM PTZ (to obtain a final concentration of 20 mM) was added to the well for 15 min. After incubation, the larva was immobilized in 2% low-melting-point agarose (Invitrogen, Carlsbad, CA, USA) and the signal electrode, an electrode inside a blunt soda-glass pipet (1412227, Hilgenberg, Germany), was positioned on the skin covering the optic tectum. Electrophysiological recordings where performed as described before. Automated power spectral density analysis was performed using MATLABR2018b (The MathWorks, Inc., Natick, MA, USA), as described before.
as §1

GABAA receptor = system: GABAA receptor; design: method as in PMID 21749864; conditions: cited from earlier work; for EC50: read-out: EC50 (potentiation of IGABA)

Compound: CC(C)=CCCC(C)=CCOc1c2occc2cc2ccc(=O)oc12 [8-geranyloxypsoralen]
- antiseizure activity in the locomotor assay (in words) [1]: lack of antiseizure activity

Compound: CCC1(c2ccccc2)C(=O)NC(=O)NC1=O [PB, phenobarbital, reference compound]
- ED50 of classic anticonvulsant alone ([2]; mice): 35.39 mg/kg

Compound: C1CCc2nnnn2CC1 [PTZ, pentylenetetrazole, reference compound]
- increase in seizure-like behavior and locomotor activity (lardist sum), average ± SD ([1]; proconvulsant, 20 mM, all experiments): 59 ± 35%

Compound: CCCC(CCC)C(=O)O [VPA, valproic acid, reference compound]
- ED50 of classic anticonvulsant alone ([2]; mice): 281.4 mg/kg
- decrease of seizure-like behavior (PTZ-induced elevated locomotor activity), average ± SD ([1]; positive control, 1 mM, all experiments): 44 ± 34%

Compound: CC(C)=CCC/C(C)=C/COc1c2ccoc2cc2oc(=O)ccc12 [bergamottin]
- inhibition (antiseizure, locomotor activity) ([3]; most active concentration, 2 µM): 26%

Compound: COc1c2ccoc2cc2oc(=O)ccc12 [bergapten]
- protective properties in MES test (in words) ([2]; mice): did not show protective properties

Compound: COc1c2ccoc2c(OC[C@@H](O)C(C)(C)O)c2oc(=O)ccc12 [byakangelicin]
- antiseizure activity in the locomotor assay (in words) [1]: lack of antiseizure activity

Compound: COc1c2ccoc2c(OC[C@H]2OC2(C)C)c2oc(=O)ccc12 [byakangelicol]
- antiseizure activity in the locomotor assay (in words) [1]: lack of antiseizure activity

Compound: COc1cc2cc(Oc3ccc4ccc(=O)oc4c3)c(=O)oc2cc1O [daphnoretin]
- lowered seizure-like behavior [1]: 65%
- decrease of PTZ-induced locomotor activity [1]: 42–65%
- decrease of normalized PSD (PTZ-induced elevation in power spectral density) [4]: 88%

Compound: CC1(C)O[C@@H]1COc1c2occc2cc2ccc(=O)oc12 [heraclenin, reference compound]
- enhancement of IGABA (GABAA receptor): greater than 20%

Compound: CC[C@H](C)C(=O)OC1c2c(ccc3ccc(=O)oc23)OC(C)(C)C1OC(C)=O (stereo partly shown) [hyuganin C]
- decrease of seizure-like behavior ([1]; 10 µM): 27%
- decrease of seizure-like behavior ([1]; 20 µM): 35%
- lowered seizure-like behavior [1]: 35%
- decrease of normalized PSD (PTZ-induced elevation in power spectral density) [4]: 65%

Compound: CC(C)=CCOc1c2occc2cc2ccc(=O)oc12 [imperatorin]
- enhancement of IGABA (GABAA receptor): greater than 20%
- raised threshold for electroconvulsions ([2]; 50 mg/kg i.p., mice): 38%
- raised threshold for electroconvulsions ([2]; 100 mg/kg i.p., mice): 68%
- antiseizure activity in the locomotor assay (in words) [1]: lack of antiseizure activity

Compound: CC(C)=CCOc1c2ccoc2cc2oc(=O)ccc12 [isoimperatorin]
- enhancement of IGABA (GABAA receptor): greater than 20%

Compound: CC(C)(O)[C@H]1Cc2cc3ccc(=O)oc3cc2O1 [nodakenetin]
- lowered seizure-like behavior [1]: 29%
- decrease of normalized PSD (PTZ-induced elevation in power spectral density) [4]: 26%

Compound: CC(C)(O[C@@H]1O[C@H](CO)[C@@H](O)[C@H](O)[C@H]1O)[C@H]1Cc2cc3ccc(=O)oc3cc2O1 [nodakenin]
- antiseizure activity in the locomotor assay (in words) [1]: inactive
- decrease of normalized PSD (PTZ-induced elevation in power spectral density) [4]: 77%

Compound: CC(C)=CC(O)C/C(C)=C/COc1c2ccoc2cc2oc(=O)ccc12 (stereo not shown) [notopterol]
- lowered PTZ-induced locomotion ([1]; 2 µM): 54%
- lowered PTZ-induced locomotion ([1]; 0.25–1 µM): 35–39%
- lowered seizure-like behavior [1]: 54%
- decrease of normalized PSD (PTZ-induced elevation in power spectral density) [4]: 83–89%

Compound: COc1ccc2ccc(=O)oc2c1CC=C(C)C [osthole]
- current in the absence of GABA (in words) (GABAA receptor): neither of them induced a current in the absence of GABA
- enhancement of IGABA (GABAA receptor): greater than 20%
- EC50 (GABAA receptor): 14 ± 1 µM
- protection of the animals against MES ([2]; 266 and 259 mg/kg i.p., between 15 and 30 min before the test): ~90%
- effect on the anticonvulsant activity of CBZ, PB, PHT and VPA on co-administration (in words) ([2]; mice): did not have a significant effect
- antiseizure activity in the locomotor assay (in words) [1]: not active

Compound: CC(C)(O)[C@H](O)COc1c2ccoc2cc2oc(=O)ccc12 [oxypeucedanin hydrate]
- lowered seizure-like behavior [1]: 74%
- decrease of PTZ-induced locomotor activity [1]: 43–74%
- decrease of normalized PSD (PTZ-induced elevation in power spectral density) [4]: 83–89%

Compound: CC1(C)O[C@H]1COc1c2ccoc2cc2oc(=O)ccc12 [oxypeucedanin]
- current in the absence of GABA (in words) (GABAA receptor): neither of them induced a current in the absence of GABA
- enhancement of IGABA (GABAA receptor): greater than 20%
- EC50 (GABAA receptor): 25 ± 8 µM
- protective properties in MES test (in words) ([2]; mice): did not show protective properties
- lowered seizure-like behavior [1]: 38%
- decrease of PTZ-induced locomotor activity [1]: 23–38%
- decrease of normalized PSD (PTZ-induced elevation in power spectral density) [4]: 83–89%

Compound: COc1c2ccoc2c(OCC=C(C)C)c2oc(=O)ccc12 [phellopterin]
- enhancement of IGABA (GABAA receptor): greater than 20%
- antiseizure activity in the locomotor assay (in words) [1]: lack of antiseizure activity

Compound: COc1c(OC)c2occc2c2oc(=O)ccc12 [pimpinellin]
- enhancement of IGABA (GABAA receptor): greater than 20%
- lowered seizure-like behavior [1]: 60%
- decrease of normalized PSD (PTZ-induced elevation in power spectral density) [4]: 81%

Compound: O=c1ccc2ccc(O)cc2o1 [umbelliferone, 7-hydroxycoumarin]
- increase of the electroshock threshold ([2]; 150 mg/kg i.p., 30 min before electroshock): around 37%
- antiseizure activity in the locomotor assay (in words) [1]: not active

Compound: COc1c2occc2cc2ccc(=O)oc12 [xanthotoxin, reference compound]
- ED50 (anticonvulsant activity) ([2]; administered 60 min before electroconvulsion, mice): 219.1 ± 4.7 mg/kg

Compound: lucidafuranocoumarin A
- inhibition (antiseizure, locomotor activity) ([3]; 16 µM): 69%
